Earlier results as cited in US20260193295A1, “CILAGICIN COMPOUNDS AND METHODS OF USE THEREOF” (priority 2022, published 2026).
In brackets after ≈: the same amount, converted by molar mass. Like-named read-outs stand apart in the source and are kept apart here.

Tested on: vancomycin-resistant Enterococci clinical isolates
Settings: cited from earlier work
[1] = Enterococci clinical isolate code 781
[2] = Enterococci clinical isolate code 782
[3] = Enterococci clinical isolate code 783
[4] = Enterococci clinical isolate code 784
[5] = Enterococci clinical isolate code 785
[6] = Enterococci clinical isolate code 786
[7] = Enterococci clinical isolate code 787
[8] = Enterococci clinical isolate code 788
[9] = Enterococci clinical isolate code 789
[10] = Enterococci clinical isolate code 790
[11] = Enterococci clinical isolate code 791
[12] = Enterococci clinical isolate code 792
[13] = Enterococci clinical isolate code 793
[14] = Enterococci clinical isolate code 794
[15] = Enterococci clinical isolate code 795
[16] = Enterococci clinical isolate code 796
[17] = Enterococci clinical isolate code 797
[18] = Enterococci clinical isolate code 798
[19] = Enterococci clinical isolate code 799
[20] = Enterococci clinical isolate code 800
[21] = Enterococci clinical isolate code 801
[22] = Enterococci clinical isolate code 802
[23] = Enterococci clinical isolate code 803
[24] = Enterococci clinical isolate code 804
[25] = Enterococci clinical isolate code 805
[26] = Enterococci clinical isolate code 806
[27] = Enterococci clinical isolate code 807
[28] = Enterococci clinical isolate code 808
[29] = Enterococci clinical isolate code 809
[30] = Enterococci clinical isolate code 810

Question: Which MIC [1] does the source give for `CN[C@H](CC(C)C)C(=O)N[C@H]1C(=O)N[C@@H](CC(N)=O)C(=O)N[C@H]2C(=O)N[C@H]3C(=O)N[C@H](C(=O)N[C@H](C(=O)O)c4cc(O)cc(O)c4-c4cc3ccc4O)[C@H](O)c3ccc(c(Cl)c3)Oc3cc2cc(c3O[C@@H]2O[C@H](CO)[C@@H](O)[C@H](O)[C@H]2O[C@H]2C[C@](C)(N)[C@H](O)[C@H](C)O2)Oc2ccc(cc2Cl)[C@H]1O` [Vancomycin] here?
Answer: The MIC was >64 µg/mL.

Question: What about the MIC [2] of the same compound?
Answer: Its MIC is 32 µg/mL (≈ 22.1 µM).

Question: And the MIC [3]?
Answer: Its MIC is 64 µg/mL (≈ 44.2 µM).

Question: And the MIC [4]?
Answer: Its MIC is 4 µg/mL (≈ 2.76 µM).

Question: What about the MIC [5] of the same compound?
Answer: The MIC was 2 µg/mL (≈ 1.38 µM).

Question: And the MIC [6]?
Answer: Its MIC is 32 µg/mL (≈ 22.1 µM).

Question: What about the MIC [7] of the same compound?
Answer: The MIC was >64 µg/mL.

Question: And the MIC [8]?
Answer: Its MIC is 2 µg/mL (≈ 1.38 µM).

Question: What about the MIC [9] of the same compound?
Answer: Its MIC is >64 µg/mL.

Question: And the MIC [10]?
Answer: Its MIC is >64 µg/mL.

Question: What about the MIC [11] of the same compound?
Answer: Its MIC is 0.5 µg/mL (≈ 0.345 µM).

Question: And the MIC [12]?
Answer: Its MIC is >64 µg/mL.

Question: And the MIC [13]?
Answer: Its MIC is 1 µg/mL (≈ 0.69 µM).

Question: And the MIC [14]?
Answer: Its MIC is >64 µg/mL.

Question: What about the MIC [15] of the same compound?
Answer: The MIC was 32 µg/mL (≈ 22.1 µM).

Question: And the MIC [16]?
Answer: Its MIC is 8 µg/mL (≈ 5.52 µM).

Question: And the MIC [17]?
Answer: Its MIC is 2 µg/mL (≈ 1.38 µM).

Question: What about the MIC [18] of the same compound?
Answer: The MIC was 2 µg/mL (≈ 1.38 µM).

Question: And the MIC [19]?
Answer: Its MIC is >64 µg/mL.

Question: And the MIC [20]?
Answer: Its MIC is 64 µg/mL (≈ 44.2 µM).

Question: And the MIC [21]?
Answer: The MIC was 4 µg/mL (≈ 2.76 µM).

Question: What about the MIC [22] of the same compound?
Answer: The MIC was >64 µg/mL.

Question: What about the MIC [23] of the same compound?
Answer: The MIC was >64 µg/mL.

Question: And the MIC [24]?
Answer: Its MIC is 16 µg/mL (≈ 11 µM).

Question: And the MIC [25]?
Answer: Its MIC is 1 µg/mL (≈ 0.69 µM).

Question: And the MIC [26]?
Answer: The MIC was 0.5 µg/mL (≈ 0.345 µM).

Question: And the MIC [27]?
Answer: Its MIC is >64 µg/mL.

Question: What about the MIC [28] of the same compound?
Answer: Its MIC is 4 µg/mL (≈ 2.76 µM).

Question: And the MIC [29]?
Answer: Its MIC is >64 µg/mL.

Question: And the MIC [30]?
Answer: The MIC was 1 µg/mL (≈ 0.69 µM).

Question: For `CC(=O)NC[C@H]1CN(c2ccc(N3CCOCC3)c(F)c2)C(=O)O1` [Linezolid], which MIC [1] is on record?
Answer: The MIC was 2 µg/mL (≈ 5.93 µM).

Question: What about the MIC [2] of the same compound?
Answer: The MIC was 2 µg/mL (≈ 5.93 µM).

Question: And the MIC [3]?
Answer: Its MIC is 2 µg/mL (≈ 5.93 µM).

Question: What about the MIC [4] of the same compound?
Answer: Its MIC is 1 µg/mL (≈ 2.96 µM).

Question: And the MIC [5]?
Answer: Its MIC is 2 µg/mL (≈ 5.93 µM).

Question: What about the MIC [6] of the same compound?
Answer: Its MIC is 2 µg/mL (≈ 5.93 µM).

Question: And the MIC [7]?
Answer: The MIC was 2 µg/mL (≈ 5.93 µM).

Question: And the MIC [8]?
Answer: Its MIC is 4 µg/mL (≈ 11.9 µM).

Question: What about the MIC [9] of the same compound?
Answer: The MIC was 2 µg/mL (≈ 5.93 µM).

Question: And the MIC [10]?
Answer: Its MIC is 2 µg/mL (≈ 5.93 µM).

Question: What about the MIC [11] of the same compound?
Answer: Its MIC is 2 µg/mL (≈ 5.93 µM).

Question: What about the MIC [12] of the same compound?
Answer: Its MIC is 1 µg/mL (≈ 2.96 µM).

Question: And the MIC [13]?
Answer: The MIC was 2 µg/mL (≈ 5.93 µM).

Question: And the MIC [14]?
Answer: The MIC was 2 µg/mL (≈ 5.93 µM).

Question: What about the MIC [15] of the same compound?
Answer: The MIC was 1 µg/mL (≈ 2.96 µM).

Question: What about the MIC [16] of the same compound?
Answer: Its MIC is 2 µg/mL (≈ 5.93 µM).

Question: And the MIC [17]?
Answer: Its MIC is 2 µg/mL (≈ 5.93 µM).

Question: And the MIC [18]?
Answer: The MIC was 4 µg/mL (≈ 11.9 µM).

Question: What about the MIC [19] of the same compound?
Answer: The MIC was 2 µg/mL (≈ 5.93 µM).

Question: What about the MIC [20] of the same compound?
Answer: The MIC was 2 µg/mL (≈ 5.93 µM).

Question: And the MIC [21]?
Answer: The MIC was 2 µg/mL (≈ 5.93 µM).

Question: What about the MIC [22] of the same compound?
Answer: Its MIC is 2 µg/mL (≈ 5.93 µM).

Question: What about the MIC [23] of the same compound?
Answer: The MIC was 4 µg/mL (≈ 11.9 µM).

Question: What about the MIC [24] of the same compound?
Answer: Its MIC is 2 µg/mL (≈ 5.93 µM).

Question: What about the MIC [25] of the same compound?
Answer: The MIC was 2 µg/mL (≈ 5.93 µM).

Question: And the MIC [26]?
Answer: The MIC was 2 µg/mL (≈ 5.93 µM).

Question: What about the MIC [27] of the same compound?
Answer: The MIC was 2 µg/mL (≈ 5.93 µM).

Question: What about the MIC [28] of the same compound?
Answer: The MIC was 4 µg/mL (≈ 11.9 µM).

Question: And the MIC [29]?
Answer: The MIC was 2 µg/mL (≈ 5.93 µM).

Question: What about the MIC [30] of the same compound?
Answer: The MIC was 2 µg/mL (≈ 5.93 µM).

Question: With `O=C(N[C@H](CO)[C@H](O)c1ccc([N+](=O)[O-])cc1)C(Cl)Cl` [Chloramphenicol] as the compound, how does the MIC [1] read?
Answer: The MIC was 8 µg/mL (≈ 24.8 µM).

Question: And the MIC [2]?
Answer: The MIC was >32 µg/mL.

Question: And the MIC [3]?
Answer: The MIC was 16 µg/mL (≈ 49.5 µM).

Question: What about the MIC [4] of the same compound?
Answer: Its MIC is 4 µg/mL (≈ 12.4 µM).

Question: And the MIC [5]?
Answer: The MIC was >32 µg/mL.

Question: What about the MIC [6] of the same compound?
Answer: Its MIC is 16 µg/mL (≈ 49.5 µM).

Question: And the MIC [7]?
Answer: Its MIC is 32 µg/mL (≈ 99 µM).

Question: And the MIC [8]?
Answer: The MIC was 8 µg/mL (≈ 24.8 µM).

Question: What about the MIC [9] of the same compound?
Answer: Its MIC is 16 µg/mL (≈ 49.5 µM).

Question: What about the MIC [10] of the same compound?
Answer: The MIC was 8 µg/mL (≈ 24.8 µM).

Question: What about the MIC [11] of the same compound?
Answer: The MIC was 8 µg/mL (≈ 24.8 µM).

Question: What about the MIC [12] of the same compound?
Answer: Its MIC is 4 µg/mL (≈ 12.4 µM).

Question: What about the MIC [13] of the same compound?
Answer: The MIC was 8 µg/mL (≈ 24.8 µM).

Question: And the MIC [14]?
Answer: Its MIC is 8 µg/mL (≈ 24.8 µM).

Question: And the MIC [15]?
Answer: Its MIC is 32 µg/mL (≈ 99 µM).

Question: What about the MIC [16] of the same compound?
Answer: Its MIC is 8 µg/mL (≈ 24.8 µM).

Question: What about the MIC [17] of the same compound?
Answer: Its MIC is 8 µg/mL (≈ 24.8 µM).

Question: What about the MIC [18] of the same compound?
Answer: Its MIC is 16 µg/mL (≈ 49.5 µM).

Question: And the MIC [19]?
Answer: The MIC was >32 µg/mL.

Question: What about the MIC [20] of the same compound?
Answer: Its MIC is 16 µg/mL (≈ 49.5 µM).

Question: And the MIC [21]?
Answer: Its MIC is 8 µg/mL (≈ 24.8 µM).

Question: And the MIC [22]?
Answer: Its MIC is 8 µg/mL (≈ 24.8 µM).

Question: What about the MIC [23] of the same compound?
Answer: The MIC was 8 µg/mL (≈ 24.8 µM).

Question: And the MIC [24]?
Answer: The MIC was >32 µg/mL.

Question: What about the MIC [25] of the same compound?
Answer: The MIC was 8 µg/mL (≈ 24.8 µM).

Question: And the MIC [26]?
Answer: The MIC was 8 µg/mL (≈ 24.8 µM).

Question: And the MIC [27]?
Answer: Its MIC is 32 µg/mL (≈ 99 µM).

Question: And the MIC [28]?
Answer: The MIC was 8 µg/mL (≈ 24.8 µM).

Question: And the MIC [29]?
Answer: Its MIC is 8 µg/mL (≈ 24.8 µM).

Question: And the MIC [30]?
Answer: The MIC was 8 µg/mL (≈ 24.8 µM).

Question: What does the source list for `[H]/N=C(/N)N[C@H]1[C@H](O)[C@@H](O)[C@H](O[C@@H]2O[C@@H](C)[C@](O)(C=O)[C@H]2O[C@@H]2O[C@@H](CO)[C@H](O)[C@@H](O)[C@@H]2NC)[C@@H](N/C(N)=N\[H])[C@@H]1O` [Streptomycin]?
Answer: MIC [1]: ≤1000 µg/mL; MIC [2]: >1000 µg/mL; MIC [3]: >1000 µg/mL; MIC [4]: ≤1000 µg/mL; MIC [5]: >1000 µg/mL; MIC [6]: ≤1000 µg/mL; MIC [7]: >1000 µg/mL; MIC [8]: ≤1000 µg/mL; MIC [9]: >1000 µg/mL; MIC [10]: >1000 µg/mL; MIC [11]: ≤1000 µg/mL; MIC [12]: ≤1000 µg/mL; MIC [13]: ≤1000 µg/mL; MIC [14]: >1000 µg/mL; MIC [15]: >1000 µg/mL; MIC [16]: ≤1000 µg/mL; MIC [17]: ≤1000 µg/mL; MIC [18]: ≤1000 µg/mL; MIC [19]: >1000 µg/mL; MIC [20]: ≤1000 µg/mL; MIC [21]: ≤1000 µg/mL; MIC [22]: >1000 µg/mL; MIC [23]: >1000 µg/mL; MIC [24]: >1000 µg/mL; MIC [25]: ≤1000 µg/mL; MIC [26]: ≤1000 µg/mL; MIC [27]: >1000 µg/mL; MIC [28]: ≤1000 µg/mL; MIC [29]: >1000 µg/mL; MIC [30]: >1000 µg/mL
